Molecular target: T1, mouse Tas2r126 (Mus musculus, UniProt P59532)
T1 construct: expressed in transfected cells; host or cells: HEK293T-Gα16gust44
T1 sequence (P59532 1-308): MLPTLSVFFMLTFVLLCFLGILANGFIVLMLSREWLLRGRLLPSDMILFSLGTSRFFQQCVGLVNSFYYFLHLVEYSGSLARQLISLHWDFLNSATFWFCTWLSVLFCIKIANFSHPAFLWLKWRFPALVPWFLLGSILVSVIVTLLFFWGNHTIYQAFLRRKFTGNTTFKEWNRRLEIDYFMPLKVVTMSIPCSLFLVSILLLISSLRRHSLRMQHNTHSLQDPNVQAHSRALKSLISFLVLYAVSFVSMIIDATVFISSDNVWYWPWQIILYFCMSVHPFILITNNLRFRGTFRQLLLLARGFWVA
Experiment: Calcium imaging assay (FLIPR), HEK293T-Gα16gust44 cells transfected with mouse Tas2r126
Format: cell-based
Method: This set of bile acids was chosen because of their commercial availability in high purities, their diversity within the class of bile acids and their previous detection and quantitation in human blood. Stock solutions were prepared in DMSO.
As basal growth medium for the HEK293T-Gα16gust44 cell line[17],[59] served Dulbecco’s modified eagle medium (DMEM) (Thermo Fisher Scientific, Darmstadt, Germany) supplemented with 10 % fetal bovine serum (Sigma-Aldrich, Steinheim, Germany), 2 mM L-glutamine (Sigma-Aldrich, Steinheim, Germany), 100 units/ml penicillin (Sigma Aldrich, Steinheim, Germany) and 100 µg/ml streptomycin (Sigma Aldrich, Steinheim, Germany). Growth conditions were 37 °C, 5 % CO2 and saturated air-humidity[60].
HEK293T-Gα16gust44 cells were seeded on poly-D-lysine (10 µg/ml) coated 96-well plates to reach a confluence of 40-60 % the next day. For transient transfection 150 ng of plasmid DNA containing the receptor of interest and 0.3 µl lipofectamine 2000 (Thermo Fisher Scientific, Darmstadt, Germany) per well were used and transfection took place according to the manual of lipofectamine 2000. […] The empty vector DNA (mock) was transfected as negative control[14],[41].
Cells were loaded using the calcium-sensitive fluorescent dye Fluo-4-AM (Abcam, Cambridge, Great Britain) in the presence of 2.5 mM probenecid (Sigma-Aldrich, Steinheim, Germany) the day after transfection[13],[41]. 1 h after loading, cells were washed with C1 buffer using a BioTek Cell Washer, incubated in the dark for half an hour and washed again. For automated agonist application and measurement of fluorescence changes, a FLIPR^TETRA device (Molecular Devices, San José, United States) was used. Viability of cells was tested by application of 100 nM Somatostatin 14 (Bachem, Bubendorf, Switzerland)[42].
Measured data were negative control corrected by subtracting the signal of the mock-transfected cells and exported to Microsoft Excel using the FLIPR software ScreenWorks 4.2. In Microsoft Excel software, standardization of maximum fluorescence intensities to the basal fluorescence and normalization to the buffer-only control was done to calculate the relative fluorescence changes (ΔF/F).
Initial screening experiments performed in duplicate wells were confirmed by at least one replication and representative traces were selected for display. All dose-response relationships were determined by three independent experiments (biological replicates) performed in duplicates (technical replicates). Threshold concentrations, defined as lowest substance concentrations leading to statistically significant elevated fluorescence changes in receptor-transfected cells compared with empty vector-transfected cells, were determined using SigmaPlot with Student’s t-test to evaluate statistical significance (p < 0.01).

## C[C@H](CCC(=O)O)[C@H]1CC[C@H]2[C@@H]3[C@H](O)C[C@@H]4C[C@H](O)CC[C@]4(C)[C@H]3C[C@H](O)[C@]12C [Cholic Acid, cholic acid]
Time 0 s
  RLU: 0 RLU
Time 2 s
  RLU: 6.32 RLU
Time 4 s
  RLU: -17.4742 RLU
Time 6 s
  RLU: 5.446 RLU
Time 8 s
  RLU: 10.1237 RLU
Time 12 s
  RLU: 18.7423 RLU
Time 14 s
  RLU: -3.953 RLU
Time 16 s
  RLU: -7.647 RLU
Time 18 s
  RLU: 11.4341 RLU
Time 18.781 s
  RLU: -6.409 RLU
Time 20.781 s
  RLU: -22.1196 RLU
Time 22.781 s
  RLU: 57.6732 RLU
Time 24.781 s
  RLU: 119.461 RLU
Time 26.781 s
  RLU: 150.574 RLU
Time 28.781 s
  RLU: 265.727 RLU
Time 30.781 s
  RLU: 370.327 RLU
Time 32.781 s
  RLU: 482.177 RLU
Time 34.781 s
  RLU: 570.785 RLU
Time 36.781 s
  RLU: 665.431 RLU
Time 38.781 s
  RLU: 689.631 RLU
Time 40.781 s
  RLU: 736.63 RLU
Time 42.781 s
  RLU: 773.753 RLU
Time 44.781 s
  RLU: 819.752 RLU
Time 46.781 s
  RLU: 829.41 RLU
Time 48.781 s
  RLU: 884.282 RLU
Time 50.781 s
  RLU: 903.917 RLU
Time 52.781 s
  RLU: 907.88 RLU
Time 54.781 s
  RLU: 897.488 RLU
Time 56.781 s
  RLU: 894.491 RLU
Time 58.781 s
  RLU: 914.837 RLU
Time 60.781 s
  RLU: 925.711 RLU
Time 62.781 s
  RLU: 919.134 RLU
Time 64.781 s
  RLU: 943.476 RLU
Time 66.781 s
  RLU: 923.886 RLU
Time 68.781 s
  RLU: 937.947 RLU
Time 70.781 s
  RLU: 951.397 RLU
Time 72.781 s
  RLU: 951.831 RLU
Time 74.781 s
  RLU: 959.178 RLU
Time 76.781 s
  RLU: 961.002 RLU
Time 78.781 s
  RLU: 948.826 RLU
Time 80.781 s
  RLU: 939.325 RLU
Time 82.781 s
  RLU: 951.223 RLU
Time 84.781 s
  RLU: 936.985 RLU
Time 86.781 s
  RLU: 922.709 RLU
Time 88.781 s
  RLU: 911.664 RLU
Time 90.781 s
  RLU: 942.653 RLU
Time 92.781 s
  RLU: 908.427 RLU
Time 94.781 s
  RLU: 912.682 RLU
Time 96.781 s
  RLU: 907.486 RLU
Time 98.781 s
  RLU: 899.352 RLU
Time 100.781 s
  RLU: 901.766 RLU
Time 102.781 s
  RLU: 898.622 RLU
Time 104.781 s
  RLU: 885.627 RLU
Time 106.781 s
  RLU: 885.616 RLU
Time 108.781 s
  RLU: 859.767 RLU
Time 110.781 s
  RLU: 849.777 RLU
Time 112.781 s
  RLU: 824.416 RLU
Time 114.781 s
  RLU: 805.273 RLU
Time 116.781 s
  RLU: 784.094 RLU
Time 118.781 s
  RLU: 781.757 RLU
Time 120.781 s
  RLU: 784.883 RLU
Time 122.781 s
  RLU: 777.647 RLU
Time 124.781 s
  RLU: 774.835 RLU
Time 126.781 s
  RLU: 752.144 RLU
Time 128.781 s
  RLU: 755.376 RLU
Time 130.781 s
  RLU: 741.203 RLU
Time 132.781 s
  RLU: 735.986 RLU
Time 134.781 s
  RLU: 705.295 RLU
Time 136.781 s
  RLU: 715.373 RLU
Time 137.563 s
  RLU: 694.021 RLU
Time 143.563 s
  RLU: 674.141 RLU
Time 149.563 s
  RLU: 648.129 RLU
Time 155.563 s
  RLU: 630.623 RLU
Time 161.563 s
  RLU: 621.371 RLU
Time 167.563 s
  RLU: 569.451 RLU
Time 173.563 s
  RLU: 563.656 RLU
Time 179.563 s
  RLU: 519.424 RLU
Time 185.563 s
  RLU: 518.545 RLU
Time 191.563 s
  RLU: 496.035 RLU
Time 197.563 s
  RLU: 519.073 RLU
Time 203.563 s
  RLU: 511.704 RLU
Time 209.563 s
  RLU: 507.09 RLU
Time 215.563 s
  RLU: 499.344 RLU
Time 221.563 s
  RLU: 510.025 RLU
Time 227.563 s
  RLU: 524.879 RLU
Time 233.563 s
  RLU: 522.75 RLU
Time 239.563 s
  RLU: 547.672 RLU
Time 245.563 s
  RLU: 498.436 RLU
Time 293.563 s
  RLU: 489.083 RLU
Time 299.563 s
  RLU: 473.554 RLU
Time 305.563 s
  RLU: 449.101 RLU
Time 311.563 s
  RLU: 467.667 RLU
Time 317.563 s
  RLU: 473.372 RLU
Time 323.563 s
  RLU: 461.769 RLU
Time 329.563 s
  RLU: 454.066 RLU
Time 335.563 s
  RLU: 446.164 RLU
Time 341.563 s
  RLU: 461.362 RLU
Time 347.563 s
  RLU: 456.539 RLU
Time 353.563 s
  RLU: 466.548 RLU
Time 359.563 s
  RLU: 455.13 RLU
P < 0.01 vs empty vector
  Activation threshold concentration Tas2r126: 100 µM
